This is an account of results in US20230114123A1, “METHOD OF STIMULATING ASYMMETRIC DIVISION OF SATELLITE STEM CELLS” (Ottawa Hospital Research Institute, priority 2017, published 2023).

The subject of the experiment is satellite cell divisions. As to the kind of experiment: FDB myofiber screening method validation (YFP(-) divisions). The note with it: for percentage of YFP(-) divisions that were symmetric divisions: control 62% (Wnt7a experiment), control 45% (EGF / PTP1b experiment); for percentage of YFP(-) divisions that were asymmetric divisions: control treated cells 55%. Type of experiment: cell-based, mouse. The source says:
EGFR pathway activators may be identified in a method of screening potential activators. The method includes visualizing isolated, cultured, and stained Flexor Digitorum Brevis (FDB) myofibers from Myf5-Cre/ROSA26-YFP mice in a plurality of Z-stack planes to create a projection image. Muscle satellite cells are identified in the projection image based on Pax7 expression. Of the identified muscle satellite cells: (i) satellite stem cells are identified based on the absence of YFP expression, and (ii) committed satellite progenitor cells are identified based on yellow fluorescence protein (YFP) expression. A potential EGFR pathway activator is administered to the FDB myofibers. The number of symmetric divisions of satellite myogenic cells, identified by the production of two YFP(+) satellite cells, are counted; the number of symmetric satellite stem cell divisions, identified by the production of two YFP(−) satellite cells, are counted; and the number of asymmetric satellite cell divisions, identified by the production of one YFP(+) and one YFP(−) satellite cell, are counted. The potential EGFR pathway activator is identified as an EGFR pathway activator when the percent of YFP(−) divisions that are asymmetric divisions is greater than the corresponding percent in a control sample. The expression “YFP(−) divisions” refers to all cell divisions where one of the daughter cells is YFP(−).
Identification of EGFR pathway activators. Flexor Digitorum brevis (FDB) fibers were isolated from Myf5-Cre/Rosa-YFP mice and digested in 0.25% Collagenase Type I (Sigma) in DMEM (Dulbecco's modified Eagle's medium; high glucose, L-glutamine with 110 mg/ml sodium pyruvate) for 2.5-3 h. Myofibers were dissociated using gentle trituration with a glass pipette.
Myofibers are cultured at 37° C., 5% CO2 for 42 h in myofiber culture media (DMEM supplemented with 20% FBS(Wisent), 1% Chicken Embryo extract (MP Biomediacals), 1% Penicillin/Streptomycin (Cederlane) and 2.5 ng/ml basic Fibroblast Growth Factor (Cedarlane).
Myofibers are first fixed in 2% Paraformaldehyde (PFA) for 5 mins. Myofibers are blocked for 1-2 h in 1% Bovine Serum Albumin, 0.5% TritonX-100, 5% HS and 0.01% Sodium Azide. Primary antibodies are applied in blocking solution for 2 h at room temperature or at 4° C. overnight. Myofibers are washed with PBS and stained with appropriate fluorescently labeled secondary antibodies (Alexa Fluor 488, 546) for 1 hat room temperature. Following washing with PBS, fiber nuclei are stained with DAPI for 5 min. The following antibodies are used: mouse anti-Pax7 (Developmental Studies Hybridoma Bank (DSHB)), chicken anti-GFP (cat. no. ab13970, Abcam).
Satellite cells are focused based on Channel 3 (DAPI) staining. Autofocus is performed by sampling seven (7) z-stacks taken at […] intervals for an extended depth of field of 85.3 μm.
Z-stack images were consolidated to create a projection image with all satellite cells in focus. Image acquisition of a projection image for analysis was created from seven (7) Z-stack images taken at 6.5 μm intervals, for an extended depth of field of 45.5 μm at 200 (Objective 20×) magnification. The projection direction was centered, where the median stacks fall within the center of each myofiber. […]
Potential satellite cells were first identified based on Channel 1 (Pax7) signal, and separated from other satellite cells based on intensity of fluorescence between cells. […]

`CCc1oc2cc(S(=O)(=O)Nc3ccc(S(=O)(=O)Nc4nccs4)cc3)ccc2c1C(=O)c1cc(Br)c(O)c(Br)c1` [PTP1b inhibitor, 3-(3,5-dibromo-4-hydroxy-benzoyl)-2-ethyl-benzofuran-6-sulfonicacid-(4-(thiazol-2-ylsulfamyl)-phenyl)-amide, reference compound]: the “percentage of YFP(-) divisions that were symmetric divisions” value is 33% and the “percentage of YFP(-) divisions that were asymmetric divisions” value is reported as 67%.
Consider “EGF: human recombinant EGF protein (Life Technologies), direct activator of the EGFR pathway”, for which the “percentage of YFP(-) divisions that were symmetric divisions” value turned out to be 29% and the “percentage of YFP(-) divisions that were asymmetric divisions” value is 71%.
